Experimental findings from US8852632B2, “Pharmaceutical formulation containing a release rate controlling composition” (Merck Sharp & Dohme Corp., priority 2004, dated 2014) are described below.

The series in a line: Hygroscopicity (vapor sorption analysis). In kind it is physicochemical. The protocol: Hygroscopicity data was obtained on a VTI Symmetrical Vapor Sorption Analyzer Model SGA-1. Data was collected at room temperature from 5-95% relative humidity and back, 5% relative humidity change per step. Equilibrium conditions were 0.01 weight percent change in 5 minutes with a maximum equilibration time of 180 minutes. […] When equilibrated back down to 5% RH, the material returned back to approximately its dry weight.

As to `Cc1nnc(C(=O)NC(C)(C)c2nc(C(=O)NCc3ccc(F)cc3)c(O)c(=O)n2C)o1`, where the note is “after cycling 5-95% relative humidity and back”, the “XRPD analysis after the hygroscopicity experiment (phase stability)” value is “had not changed phases”. Further, where the note is “equilibrated at 95% RH at 25° C.”, the “weight increase (hygroscopicity)” value stood at 1.8%.
